Paper PMC1082716, “Blockade of chemokine-induced signalling inhibits CCR5-dependent HIV infection in vitro without blocking gp120/CCR5 interaction” (Retrovirology, 2005)

Legend:
[1] = test system: SDF-1α induced chemotaxis; assay: SDF-1α induced chemotaxis (ChemoTx transwell); type: cell-based; conditions: 100 ng/ml SDF1α; various concentrations of inhibitor in both compartments; 5 × 10^4 cells per well; 2 h, 37°C; MTT; triplicate
Method: Figure 2 Effect of Peptide 3 on gp120:V3 loop peptide binding to cells. (a) The binding of 100 μM N-terminal biotinylated gp120:V3(IIIb) to THP-1 cells was measured in the presence of various concentrations of peptide 3. […] (b) Chemotaxis in response to 100 ng/ml SDF1α was measured in the presence of various concentrations of peptide 3. […] (e) As for (a) except that the effect of Peptide 3 on the binding of gp120:V3(BaL) to THP-1 cells was determined. (f) As for (b) except that the effect of Peptide 3 on chemotaxis induced by 25 ng/ml MIP1α was determined. All binding reactions were performed with 10^6 cells in 100 μl of binding medium at 4°C. Chemotaxis assays were performed with 5 × 10^4 cells per well. Values are mean ± SEM of triplicate determinations.
Chemotaxis experiments were performed essentially as previously described, using the ChemoTx disposable 96-well transwell migration plates, with PVP-free membrane (6 μm pore size). Chemoattractant (lower compartment) and cells upper compartment) were suspended in Gey's Balanced salt solution + 1 mg/ml BSA. […] Migration was allowed to proceed for 2 hours at 37°C. […] Each condition was determined in triplicate, and the number of cells migrating in the absence of chemoattractant was subtracted to determine the chemokine-dependent chemotaxis which was reported.

CXCR4 = molecular target: T1, CXCR4 (Homo sapiens, UniProt P61073); assay: Specific binding of biotinylated gp120:V3(IIIb) peptide to Jurkat cells; conditions: 100 μM biotinylated gp120:V3(IIIb); various concentrations of inhibitor; 10^6 cells in 100 μl, 4°C; triplicate
T1 construct: CXCR4, which is expressed on both THP-1 and Jurkat cells, but at higher levels on the T-cell line; endogenous in cells; host or cells: Jurkat T-cells (whole cells, 10^6 per well, 4°C)
T1 sequence (P61073 whole entry): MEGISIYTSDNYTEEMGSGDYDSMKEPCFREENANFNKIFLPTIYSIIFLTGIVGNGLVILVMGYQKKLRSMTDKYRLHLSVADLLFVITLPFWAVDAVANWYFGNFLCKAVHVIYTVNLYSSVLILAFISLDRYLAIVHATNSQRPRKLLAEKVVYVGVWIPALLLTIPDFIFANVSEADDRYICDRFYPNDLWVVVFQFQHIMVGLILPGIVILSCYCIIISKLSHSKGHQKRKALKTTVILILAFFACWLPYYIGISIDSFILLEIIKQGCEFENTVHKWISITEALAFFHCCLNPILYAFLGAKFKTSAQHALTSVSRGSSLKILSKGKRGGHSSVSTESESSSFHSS

[2] = test system: chemokine-receptor-induced ERK activity; conditions: MEK inhibitor; ref [25]; cited from earlier work
From the text: (§1) It has been proposed that this chemotactic signalling might play a role during HIV infection in vivo, possibly by recruiting susceptible T-cells to sites of viral replication. In other retroviruses envelope/receptor interactions are known to be mitogenic and this may facilitate nuclear translocation and integration of the provirus. In HIV, however, it is not known whether the ability to productively engage the chemokine receptors in this way plays any direct role in acute viral entry and subsequent productive infection of the target cell.

HIV = conditions: cited from earlier work
From the text: as §1, with “cell. […] Since BSCIs, such as Peptide 3, ...” for “cell.”

HIV strain MN = assay: HIV (MN) infection of THP-1 cells, p24gag immunofluorescence; type: cell-based, HIV-1; conditions: HIV strain MN; Peptide 3 100 μM, MIP1α 100 ng/ml, SDF1α 100 ng/ml; 72 h; p24gag immunofluorescence
Method: However, it was possible to assess HIV infectivity of THP-1 cells using high sensitivity immunofluorescent detection of p24^gag. THP-1 cells were differentiated with hydrocortisone and PMA, then treated with TNFα, resulting in adherent monolayers on glass chamber slides. The THP-1 cells were then treated with either Peptide 3 (100 μM), MIP1α (100 ng/ml) or SDF1α (100 ng/ml) as for the Jurkat cells. THP-1 cells were infected with HIV strain MN at a concentration previously validated to produce easily detectable infection and grown for 72 h prior to fixation and staining for p24^gag. In contrast to the findings with HIV strain IIIb infection of Jurkat T cells, Peptide 3 inhibited infection of THP-1 cells by more than 80% (Fig 3c), very similar to the effect of MIP1α.
THP-1 cells were differentiated prior to infection with hydrocortisone and PMA in 8-well chamber slides. Sixteen hours prior to infection, TNFα was added (100 ng/ml). Twelve hours later, the medium was aspirated and replaced with fresh medium containing the test peptides or chemokines as appropriate. After a further four hours, virus from the frozen stocks was adeed to the cells, which were the processed for immunofluoresence between 28 h and 72 h after infection.
Jurkat cells following HIV infection were attached to 8-well chamber slides (Becton-Dickinson) by spinning the slides using a plate rotor in a Labofuge centrifuge (Heraeus) at 3,000 × g for 5 minutes. Attached Jurkat cells or THP-1 cells were then fixed by dipping the slides into ice-cold 70% ethanol for 90 seconds. Non-specific binding was blocked by incubation with 3% fatty acid-free BSA in TBS for 1 hour at room temprature. Cells were incubated with the mouse monoclonal anti-HIV-1 p24^gag antibody EH12E1 (ref 38;AIDS Reagent Program, NIBSC) at 10 μg/ml in 3% BSA in TBS at room temperature overnight. Unbound antibody was removed with 3 × 3 min washes in PBS, and bound antibody was then fixed to the slide by incubation with 3.8% phosphate buffered formalin pH7.2 for 10 mins at room temperature, followed by 3 further 3 min washes in PBS. Bound antibody was visualised using donkey anti-mouse IgG FITC conjugate (715-095-150; Jackson Immunoresearch) at 30 μg/ml in 3% BSA/TBS + 1 ng/ml Hoescht 33342 for 6 hours at room temperature. Twelve fields of view (100× magnification) were captured from each well of the chamber slide using an Olympus Provis AX electronic microscope connected to a Power Macintosh 8500, running OpenLab image analysis software (Improvision), under both FITC illumination conditions (NIBA filter block; λex = 470–490 nm, dichroic mirror = 505 nm, λem = 515–550 nm) and UV illumination conditions (Chroma 31000; λex = 340–380 nm, dichroic mirror = 400 nm, λem = 435–485 nm). Images were acquired with a Hamamatsu C4742-05 monochrome digital camera with 10-bit depth in a 1280-1024 pixel field connected to a DIG Snapper frame grabber. The exposure time, amplifier gain and offset values were controlled by the OpenLab software and were held constant throughout the experiment. A background (an image captured without a slide under the objective) was digitally subtracted from every image. A threshold was then applied to each image which was the lowest threhold that detected <1% of the pixels of an image of uninfected cells stained under identical conditions. The number of objects exceeding this threshold in each field of view were counted. […]

HIV (IIIb) [3] = assay: HIV (IIIb) replication in Jurkat T-cells, supernatant reverse transcriptase activity; type: cell-based; conditions: HIV-1 IIIb, Jurkat; SDF1α 100 ng/ml; two weeks; average of six separate experiments
Method: HIV infection of Jurkat T-cells using the laboratory-adapted T-tropic isolate IIIb was monitored using two different assays. Firstly, Jurkat T-cells in 96-well plates were pre-treated with either Peptide 3, vehicle (as a negative control) or SDF1α (as a positive control) for 4 hours, then exposed to HIV virus (10^6 TCID50) and pulsed at 2–3 day intervals with Peptide 3, SDF1α or medium alone as appropriate. After two weeks in culture, the extent of viral infection was assayed by measuring the reverse transcriptase activity in the supernatant, as a measure of viral replication in the culture In six separate experiments, Peptide 3 (100 μM) had no effect on virus replication following HIV exposure (Fig 3a), while SDF1α inhibited reverse transcriptase activity by an average of 75%. No effect was seen on cell viability under any of the treatment conditions.
HIV-1 stocks were prepared in the following manner. HIV-1 IIIb (provided by the MRC AIDS Reagent Programme) was used to infect Jurkat T cells and the progression of infection was monitored using the reverse transcriptase assay for 10–14 days. […] Stocks of HIV-1 MN strain were prepared in a similar manner, except that H9 T cells were used and the progression of infection was monitored by immunofluoresence (because of the low RT activity) in this strain. […]

HIV (IIIb) [4] = assay: HIV (IIIb) infection of Jurkat T-cells, p24gag immunofluorescence; type: cell-based; conditions: SDF1α 100 ng/ml, approximately 48 h after infection, 12 fields of view from each of two wells
Method: HIV infection of Jurkat T-cells was also monitored by high sensitivity quantitative immunofluoresence detection of viral p24^gag expression. Jurkat cells were infected with HIV in the presence or absence of Peptide 3 (100 μM) or SDF1α (100 ng/ml) as described above. Approximately 48 h after infection, the cells were attached to glass slides using a cytospin and then fixed by immersion in ice-cold 70% ethanol for 90 seconds. Expression of p24^gag was determined using quantitative immunofluoresence as previously described, except that the primary antibody was post-fixed to the section using paraformaldehyde to increase the sensitivity of the technique (see Methods). Viral infectivity was expressed as the number of cells stained for p24^gag expressed as a proportion of the total number of cells (detected using Hoechst 33342 nuclear dye). […]
Jurkat cells following HIV infection were attached to 8-well chamber slides (Becton-Dickinson) by spinning the slides using a plate rotor in a Labofuge centrifuge (Heraeus) at 3,000 × g for 5 minutes. […] A threshold was then applied to each image which was the lowest threhold that detected <1% of the pixels of an image of uninfected cells stained under identical conditions. The number of objects exceeding this threshold in each field of view were counted. […]

[5] = test system: Gi-mediated signalling through chemokine receptors; conditions: ref [24]; cited from earlier work
From the text: as §1

c1cc(CN2CCCNCCNCCCNCC2)ccc1CN1CCCNCCNCCCNCC1 [AMD3100, reference compound]
Effect on SDF-1α induced chemotaxis [1]: blocked
Effect on binding of gp120:V3(IIIb) to Jurkat cells (CXCR4): blocked

N#CC(=C(/N)Sc1ccccc1N)/C(C#N)=C(/N)Sc1ccccc1N [Peptide U0126]
Effect on chemokine-receptor-induced ERK activity [2]: block
Effect on HIV infection in vitro (HIV; MEK inhibitor, ref [25]): block

SDF1α [reference compound]
Effect on HIV infection of THP-1 cells (in words) (HIV strain MN): no statistically significant effect
Inhibition of reverse transcriptase activity (HIV (IIIb) [3]): 75%
Inhibition of viral infectivity (p24gag) (HIV (IIIb) [4]): more than 80%

pertussis toxin
Effect on Gi-mediated signalling through chemokine receptors [5]: blocks
Effect on cellular infection with HIV in vitro (HIV; ref [24] (Guntermann), [25] (Montes; similar results)): block cellular infection with HIV in vitro

B1: MIP1α: chemokine used at 100 ng/ml (protein, UniProt P10147 24-92, looked up)
C-C motif chemokine 3: SLAADTPTACCFSYTSRQIPQNFIADYFETSSQCSKPGVIFLTKRSRQVCADPSEEWVQKYVSDLELSA
Effect on HIV infection of THP-1 cells (in words) (HIV strain MN): very similar
